# Patent EP2050748A1, “Novel fused pyrimidines” (Bayer Schering Pharma Aktiengesellschaft, priority 2007, dated 2009)
# Assays:
# [1] = tested on: phosphorylated GSK3 (Ser9); test: Cellular pGSK3 assay (phospho-GSK3 ELISA); assay type: cell-based; conditions: Homo sapiens, MCF7 cells, compound incubated 48h
# Procedure: In order to study the cellular activity of the compounds according to the present invention, an ELISA-based assay has been established for the phosphorylated protein glycogen synthetase kinase 3 (GSK3). The assay is based on a solid phase sandwich ELISA that detects endogenous levels of phosphorylated GSK3 using a phospho-GSK3 (Ser9) specific antibody (BioSource International, Inc.; Catalog #KHO0461). After incubation with cell lysates, the coated antibody captures the phosphorylated GSK3 protein. Following extensive washing, GSK3 polyclonal antibody is added to detect the captured phospho-GSK3 protein. Secondary antibody (anti-rabbit IgG-HRP) is then used to recognize the bound detection antibody. After the second incubation and washing to remove all the excess anti-rabbit IgG-HRP, a substrate solution is added, which is acted upon by the bound enzyme to produce color. The intensity of this colored product is directly proportional to the concentration of GSK-3β [pS9] present in the original specimen. MCF7 cells (ATCC HTB-22) were seeded into 96 well fate bottom plates at a density of 10000 cells/well. After 24 h 1 µl each of the compound dilutions (test compounds were dissolved as 10 mM solutions in dimethylsulfoxide (DMSO) and subsequently diluted) were added into each well of the 96 well plates and incubated for 48h at 37°C in a humidified athmosphere containing 5% CO2. Cells were harvested and lysed in cell extraction buffer (10 mM Tris, pH 7.4, 100 mM NaCl, 1 mM EDTA, 1 mM EGTA, 1 mM NaF, 20 mM Na4P2O7, 2 mM Na3VO4, 1% Triton X-100, 10vol% glycerol, 0.1vol% SDS, 0.5vol% deoxycholate, 1 mM phenylmethylsulfonylfluorid (PMSF)). The lysate were centrifuged for 10 min. at 4°C and the supernatant were transferred to a new tube. 50 µl of sample diluent (standard diluent buffer, Biosource) were added and 100 µl of cell lysate transferred into the tube and vortexed. 100 µl of each diluted cell lysate were added to the appropriate ELISA well plate and incubated for 3h at room temperature. The plates were washed 4 times with 1x wash buffer (Biosource). 50 µl of detection antibody (GSK3 (Ser9) detection antibody; BioSource) were added to each well and incubated for 30 min. at room temperature. The washing procedure was repeated between each step. 100µl of HRP-linked secondary antibody (anti-mouse IgG HRP-linked antibody) were added to each well and incubated for 30 min. at room temperature. 100µl of TMB substrate (0.05vol% 3,3',5,5' tetramethylbenzidine, 0.1vol% hydrogen peroxide, complex polypeptides in a buffered solution; Biosource) were added to each well and incubated for 30 min. at room temperature. Finally 100 µl of Stop solution (0.05vol% α and β unsaturated carbonyl compound) were added to each well and the plate were shaked gently for a few seconds. The absorbance was measured at λ = 450 nm (Wallac Victor2; Perkin Elmer, USA) within 30 min. after adding the stop solution. The analysis of the data was performed using a statistical program (Excel; Microsoft, USA) and the IC50 of pGSK3 inhibition was determined.
# [2] = tested on: phosphorylated Akt protein (Ser473); test: Cellular PI3K / Akt pathway assay (phospho-Akt ELISA); assay type: cell-based; conditions: Homo sapiens; MCF7 cells, stimulated with ß-Heregulin (20ng/ml), compound incubated 48h, phospho-Akt1 (Ser473) ELISA
# Procedure: In order to study the cellular activity of the compounds according to the present invention, an Enzyme Linked Immunosorbent Assay (ELISA)-based assay has been used specific phospho-AKT. The assay is based on a Sandwich ELISA kit (PathScan™ Phospho-Akt1 (Ser473); Cell Signaling, USA; #7160).
# The ELISA Kit detects endogenous levels of phosphorylated Akt protein. A phospho-Akt (Ser473) antibody (Cell Signaling, USA; #9271) has been coated onto the microwells. After incubation with cell lysates, the coated antibody captures the phosphorylated Akt protein. Following extensive washing, Akt1 monoclonal antibody (Cell Signaling, USA; #2967) is added to detect the captured phospho-Akt1 protein. HRP-linked anti-mouse antibody (HRP: horseradish peroxidase; Cell Signaling, USA; #7076) is then used to recognize the bound detection antibody. HRP substrate (= 3,3',5,5'-tetramethylbenzidine (TMB); Cell Signaling, USA; #7160) is added to develop colour. The magnitude of optical density for this developed color is proportional to the quantity of phosphorylated Akt protein.
# MCF7 cells (ATCC HTB-22) are seeded into 96 well fate bottom plates at a density of 10000 cells/well. 24 hours after seeding, the cells are serum starved using low-serum medium (IMEM media including 0,1% charcoal treated FCS (FCS: fetal calf serum)). After 24 hours 1 µl each of the compound dilutions (test compounds were dissolved as 10 mM solutions in dimethylsulfoxide (DMSO) and subsequently diluted) are added into each well of the 96 well plates and incubated for 48h at 37°C in a humidified athmosphere containing 5% CO2. To stimulate Akt phosphorylation, ß-Heregulin (20ng/ml β-HRG) is added in parallel to the compounds. Wells containing unstimulated control cells (no β-Heregulin stimulation) are incubated with or without the diluted compound. Wells containing untreated control cells (no compound) are filled with medium containing 0.5% v:v DMSO and are or are not stimulated with β-Heregulin.
# Cells are harvested and lysed with brief sonification in 1x x cell lysis buffer (20mM Tris (pH7.5), 150 mM NaCl, 1 mM ethylene diaminetetraacetate (EDTA), 1 mM ethylene glycolbis(2-aminoethyl)-N,N,N',N'-tetraacetic acid (EGTA), 1vol% Triton X-100, 2.5mM sodium pyrophosphate, 1 mM β-glycerolphosphate, 1 mM Na3VO4, 1 µg/ml leupeptin). The lysate is centrifuged for 10 min. at 4°C and the supernatant is transferred to a new tube. 100 µl of sample diluent (0.1vol% Tween-20, 0.1vol% sodium azide in phosphate buffered saline (PBS)) are added to a microcentrifuge tube and 100 µl of cell lysate are transferred into the tube and vortexed. 100 µl of each diluted cell lysate are added to the appropriate ELISA well, and incubated overnight at 4°C. The plates are washed 4 times with 1 x wash buffer (1 vol% tween-20, 0.33vol% thymol, in PBS). Next 100 µl of detection antibody (Akt1 (2H10) monoclonal detection antibody; Cell Signaling, USA; #2967) are added to each well and incubation continued for 1 h at 37°C. The washing procedure is repeated between each step. 100µl of secondary antibody (anti-mouse IgG HRP-linked antibody; Cell Signaling, USA; #7076) are added to each well and incubated for 30 min. at 37°C. Than, 100µl of TMB substrate (0.05% 3,3',5,5' tetramethylbenzidine, 0.1 % hydrogen peroxide, complex polypeptides in a buffered solution; Cell Signaling, USA; #7160) are added to each well and incubated for 30 min. at 25°C. Finally 100 µl of STOP solution (0.05vol% α and β unsaturated carbonyl compound) are added to each well and the plate are shaked gently. The absorbance is measured at λ=450 nm (Wallac Victor2; Perkin Elmer, USA) within 30 min. after adding the STOP solution. The analysis of the data is performed using a statistical program (Excel; Microsoft, USA). Preferred compounds show an inhibitory activity towards Akt phosphorylation below 10µM.
Structure (SMILES),IC50 [1] [µM],IC50 [2] [µM]
"CCc1cn2cc(-c3ccccc3)c(-c3ccc(CN4CCC(c5n[nH]c(-c6ccccn6)n5)CC4)cc3)nc2n1 [Example 17, 2-ethyl-6-phenyl-7-(4-{[4-(5-pyridin-2-yl-1,2,4-triazol-3-yl)piperidin-1-yl]methyl}phenyl)imidazo[1,2-a]pyrimidine]",1 to 10,< 1
"c1ccc(-c2cn3ccnc3nc2-c2ccc(CN3CCC(c4n[nH]c(-c5ncccn5)n4)CC3)cc2)cc1 [Example 18, 6-phenyl-7-(4-{[4-(5-pyrimidin-2-yl-1,2,4-triazol-3-yl)piperidin-1-yl]methyl}phenyl)imidazo[1,2-a]pyrimidine]",1 to 10,1 to 10
"c1ccc(-c2cn3nccc3nc2-c2ccc(CN3CCC(c4n[nH]c(-c5ccccn5)n4)CC3)cc2)cc1 [Example 19, 6-phenyl-5-(4-{[4-(5-pyridin-2-yl-1,2,4-triazol-3-yl)piperidin-1-yl]methyl}phenyl)pyrazolo[1,5-a]pyrimidine]",1 to 10,< 1
"c1ccc(-c2cn3ccnc3nc2-c2ccc(CN3CCC(n4cnc(-c5ccccn5)c4)CC3)cc2)cc1 [Example 20, 6-phenyl-7-(4-{[4-(4-pyridin-2-yl-imidazol-1-yl)piperidin-1-yl]methyl}phenyl)imidazo[1,2-a]pyrimidine]",1 to 10,< 1
"c1ccc(-c2cn3ccnc3nc2-c2ccc(CN3CCC(c4n[nH]c(-c5cnccn5)n4)CC3)cc2)cc1 [Example 21, 6-phenyl-7-(4-{[4-(5-pyrazin-2-yl-1,2,4-triazol-3-yl)piperidin-1-yl]methyl}phenyl)imidazo[1,2-a]pyrimidine]",1 to 10,< 1
"CCc1cnc2nc(-c3ccc(CN4CCC(c5n[nH]c(-c6ccccn6)n5)CC4)cc3)c(-c3ccccc3)cn12 [Example 22, 3-ethyl-6-phenyl-7-(4-{[4-(5-pyridin-2-yl-1,2,4-triazol-3-yl)piperidin-1-yl]methyl}phenyl)imidazo[1,2-a]pyrimidine]",1 to 10,< 1
